Measurements as given in US20070212403A1, “Method for Selecting Cationic or Anionic Liposomes for Treatment of a Mucosa Membrane, and Kit Comprising the Same” (Yissum Research Development Company of the Hebrew …, priority 2003, published 2007).

Legend:
[1] = system: healthy colonic epithelium of the rat; test: Tissue staining by charged dyes, healthy colonic sacs; conditions: 15 min incubation, mean±SEM
Experimental: Colonic sacs, of either healthy or inflamed rat colonic tissues, were prepared as described above and filled, in separate studies, with 0.5 ml of aqueous solutions (containing 2% v/v DMSO) of either of the cationic dye, hematoxylin (1 mg/ml), or the anionic dye, eosin B (0.5 mg/ml). The sacs were incubated in 15 ml of PBS containing glucose (10 mM), at 37° C. (glass vial) for 15 min in a shaking bath, after which the sacs were cut open, measured for their surface area (ruler) and rinsed (PBS) three times. The tissues incubated with eosin B were then homogenized in 3 ml of absolute methanol, while the tissues incubated with hematoxylin were homogenized in 3 ml of absolute ethanol. The concentration of dyes in the tissue homogenates was measured spectrophotometrically (Uvikon 933, Kontron Switzerland), at 292 nm (hematoxylin) or 523 nm (eosin B).

[2] = system: inflamed colonic epithelium of the rat; test: Tissue staining by charged dyes, inflamed colonic sacs; conditions: 15 min incubation, mean±SEM
Experimental: Twenty-four hours prior to colitis induction the rats were deprived of food, but allowed free access to water. The water contained 10 mg/l of the laxatives sennoside-A and sennoside-B (X-Prep Liquid®, Rafa Pharmaceuticals, Israel) and sucrose (200 g/l). With the rats under light ether inhalation anesthesia, colitis was induced by intracolonic administration of 30 mg of dinitrobenzensulfonic acid (DNBS) dissolved in 1 ml of an ethanolic solution 25% (v/v). The solution was instilled slowly over 20 s via a flexible, perforated foley catheter, which was then immediately removed, leaving the rats in an upside down position for another 40 s. Colonic sacs, of either healthy or inflamed rat colonic tissues, were prepared as described above and filled, in separate studies, with 0.5 ml of aqueous solutions (containing 2% v/v DMSO) of either of the cationic dye, hematoxylin (1 mg/ml), or the anionic dye, eosin B (0.5 mg/ml). The sacs were incubated in 15 ml of PBS containing glucose (10 mM), at 37° C. (glass vial) for 15 min in a shaking bath, after which the sacs were cut open, measured for their surface area (ruler) and rinsed (PBS) three times. […] The concentration of dyes in the tissue homogenates was measured spectrophotometrically (Uvikon 933, Kontron Switzerland), at 292 nm (hematoxylin) or 523 nm (eosin B).

[3] = system: epithelium of the rat intestine; test: Tissue uptake of free and liposomal SOD and TMN in intestinal sacs; conditions: for tissue uptake: 60 min incubation, mean±SEM
Experimental: The abdomens of anesthetized healthy Sabra rats were cut open and 10 cm long segments of the distal colon were excised, separated and rinsed with PBS. Colon sacs (5 cm each) were prepared by tying one end with 3/0 silk suture, filling with 0.4 ml of free or liposomal suspension of either TMN or FITC-SOD (diluted×10 in PBS), and tying at the other end.
The sacs were incubated in 15 ml of PBS, containing 10 mM glucose, at 37° C., in a glass vial in a shaking bath for 60 min. At the end of the incubation, the sacs were cut open, rinsed three times by PBS immersion and weighed. For detection of FITC-SOD attachment and uptake (subsequently referred to generally as uptake, as internalization and attachment cannot be discriminated using these methods), the colon sac preparations were homogenized (Polytron, Kinematicas, Berlin, Germany) in a solution containing isopropanol: pH 9.0 borate buffer 9:1. One milliliter of the homogenate was centrifuged at 14,000 rpm for 15 min. The level of fluorescence in the supernatant was then measured by a spectrofluorimeter (Perkin-Elmer LS-SB, Bucks, England) at λ excitation=495, λ emission=525. For the detection of TMN uptake, tissues were homogenized in water containing 1% v/v TritonX-100. One ml of the homogenate was centrifuged (5000 rpm, 15 min), and TMN concentration was measured by EPR.

[4] = system: tumor recurrence; conditions: animal model, peritoneal wound site; cited from earlier work
[5] = system: jejunal mucosa; test: Local oxidative stress (hypoxanthine/xanthine oxidase-FeSO4) in perfused rat jejunum; assay type: in vivo; conditions: 20 min perfusion pretreatment before hydroxyl radical induction; for tissue LDH activity: mean±SEM
Experimental: Hydroxyl radicals were induced in the jejunum (15 cm long segment) of each of four group of anaesthetized Sabra rats, by the perfusion of a mixture of 6 mM hypoxanthine, 3 U/ml of xanthine oxidase, 10 mM FeSO4 and 1 mM EDTA in saline over 30 min, using a closed rat jejunal loop system at a rate of 1 ml/min, as described elsewhere [Kohen R. et al. J. Biol Chem. 1992, 267:21349-21354].
In separate studies two groups of rats (4 rats in each group) were perfused with either 35 U/ml SOD or liposomal SOD over 20 min. A 10 min saline rinse was then performed, followed by the hydroxyl radicals induction as described above. Similarly, the other two groups (4 rats each) were perfused with 5 mM free TMN or liposomal TMN over 20 min. A 10 min saline rinse was then performed, followed by hydroxyl radicals induction as described above. Control studies included (a) a group of rats, perfused with normal saline over 30 minutes prior to the oxidative damage induction, (b) a group of rats, perfused with normal saline for 20 min (naive control). At the end of each study, the perfused jejunal segment was separated from the anaesthetized animal, the mucosal epithelial layer delicately scraped and homogenized in 5 ml of distilled water on ice.
Assuming that tissue insult would cause leakage of enterocyte contents, the induced damage was characterized by measuring tissue (a) activity of lactate dehydrogenase (LDH) at 340 nm with pyruvic acid as the substrate and NADH as the electron donor. For this purpose, 1 ml of the tissue homogenate was centrifuged at 5000 g for 15 min. LDH activity was measured in the supernatant; (b) potassium levels by atomic absorption. All measurements were repeated four times, and the results were normalized to tissue dry weight.

| Molecule | dye attachment to healthy colonic epithelium [1] | dye attachment to inflamed colonic epithelium [2] | tissue uptake [3] | reduction of tumor recurrence [4] | tissue potassium levels [5] | tissue LDH activity [5] | tissue uptake relative to free SOD uptake [3] |
| --- | --- | --- | --- | --- | --- | --- | --- |
| Oc1cc2c(cc1O)[C@@H]1c3ccc(O)c(O)c3OC[C@]1(O)C2 [hematoxylin] | 26.2±2.8 μg/cm^2 | 19.6±1.36 μg/cm^2 | – | – | – | – | – |
| superoxide dismutase [native SOD] | – | – | 2.5±1.6 % uptake of initial amount | 50% | 0.37±0.03 μmol/mg tissue | 11.8±0.3 U/mg tissue | – |
| CC1(C)CC(N)CC(C)(C)N1[O] [free TMN, 4-amino tempol] | – | – | 6.8±1.1 % uptake of initial amount | – | 0.33±0.08 μmol/mg tissue | 9.0±1.3 U/mg tissue | 3 fold |
| O=C(O)c1ccccc1-c1c2cc([N+](=O)[O-])c(=O)c(Br)c-2oc2c(Br)c(O)c([N+](=O)[O-])cc12 [eosin B] | 0.12±0.011 μg/cm^2 | 0.19±0.012 μg/cm^2 | – | – | – | – | – |
| catalase | – | – | – | 40% | – | – | – |
